Reference: the supplement of paper PMC11208160

Test: recombinant UMI read abundance after kanamycin selection (control-corrected) (log10(CPM+1)); higher = more efficient recombination; extreme values may be limits of the assay; sequences stand for … in AGTGCAGAGAAAATCGGCCAGTTTTCTCTGCCTGCAGTCCGCATGCCGTGGGACCCCTTGGGTTCTAACCTGTTGCCTAGATTTATGCAGCGGACTGCCTTTCTCCCAAAGTGATAAACCGG…AGGTTGGTTTCACT; site = the 11-nt donor
Protocol: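 Pooled E. coli donor-specificity screen for the IS621 bridge recombinase. Each library member carries a reprogrammed 11-nt donor and a full-length LE bridge RNA expressed in cis from the natural promoter, with a paired donor-binding loop (8-nt LDG + 4-nt RDG) and a target-binding loop fixed to T5. It is co-electroporated with a T5 target plasmid; recombinase is induced with 0.07 mM IPTG and recombinants are selected on kanamycin. UMIs are counted as CPM, averaged over two biological replicates and corrected by the unselected control. Molecule = full bridge RNA written as DNA, built from the T5 scaffold: LDG = donor specificity nt 1-8, RDG = reverse complement of nt 8-11.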
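Further: IS621 bridge recombinase in Escherichia coli cells against a fixed T5 target plasmid.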

Sequence | recombinant UMI read abundance (log10)
ACACGGACATGGACCGGTTTTCCCGGTAATCCGTATTTGTC (site ACACGGACTGA) | 0.491
ACACGGACATGGACCGGTTTTCCCGGTAATCCGTATTTGTC (site ACACGTACTGA) | 0
ACACGTCCATGGACCGGTTTTCCCGGTAATCCGTATTTGAT (site ACACGTCCTAT) | 1.56
ACACTAGCATGGACCGGTTTTCCCGGTAATCCGTATTTGTG (site ACACTAGCTCA) | 1.62
ACACTATCATGGACCGGTTTTCCCGGTAATCCGTATTTGCA (site ACAATATCTTG) | 2.11
ACACTATCATGGACCGGTTTTCCCGGTAATCCGTATTTGCA (site ACACTATCTTG) | 2.85
ACACTATCATGGACCGGTTTTCCCGGTAATCCGTATTTGCA (site ACAGTATCTTG) | 1.89
ACACTATCATGGACCGGTTTTCCCGGTAATCCGTATTTGCA (site ACATTATCTTG) | 2.21
ACAGAAACATGGACCGGTTTTCCCGGTAATCCGTATTTGCA (site ACAGAAACTTG) | 2.78
ACAGAAACATGGACCGGTTTTCCCGGTAATCCGTATTTGCA (site ACAGTATCTTG) | 0
ACAGCAGCATGGACCGGTTTTCCCGGTAATCCGTATTTGCA (site ACAGCAGCTTG) | 2.49
ACAGCAGCATGGACCGGTTTTCCCGGTAATCCGTATTTGCA (site ACAGTATCTTG) | 0
ACAGCGTCATGGACCGGTTTTCCCGGTAATCCGTATTTGAC (site ACAGCGTCTGT) | 3.29
ACAGCTACATGGACCGGTTTTCCCGGTAATCCGTATTTGTG (site ACAACTACTCA) | 0.815
ACAGCTACATGGACCGGTTTTCCCGGTAATCCGTATTTGTG (site ACACCTACTCA) | 0.156
ACAGCTACATGGACCGGTTTTCCCGGTAATCCGTATTTGTG (site ACAGCTACTCA) | 1.44
ACAGCTACATGGACCGGTTTTCCCGGTAATCCGTATTTGTG (site ACATCTACTCA) | 0.0498
ACAGGAACATGGACCGGTTTTCCCGGTAATCCGTATTTGTC (site ACAAGAACTGA) | 1.18
ACAGGAACATGGACCGGTTTTCCCGGTAATCCGTATTTGTC (site ACACGAACTGA) | 0.428
ACAGGAACATGGACCGGTTTTCCCGGTAATCCGTATTTGTC (site ACAGGAACTGA) | 2.43
ACAGGAACATGGACCGGTTTTCCCGGTAATCCGTATTTGTC (site ACATGAACTGA) | 0.289
ACAGGACCATGGACCGGTTTTCCCGGTAATCCGTATTTGGA (site ACAGGACCTTC) | 0.00625
ACAGGATCATGGACCGGTTTTCCCGGTAATCCGTATTTGCC (site ACAGGATCTGG) | 2.27
ACAGGATCATGGACCGGTTTTCCCGGTAATCCGTATTTGCC (site ACAGTATCTTG) | 0

Sequence | recombinant UMI read abundance (log10)
ACAGGGTCATGGACCGGTTTTCCCGGTAATCCGTATTTGCA (site ACAGGGTCTTG) | 3.2
ACAGGGTCATGGACCGGTTTTCCCGGTAATCCGTATTTGCA (site ACAGTATCTTG) | 1.89
ACAGTACCATGGACCGGTTTTCCCGGTAATCCGTATTTGCC (site ACAGTACCTGG) | 0
ACAGTACCATGGACCGGTTTTCCCGGTAATCCGTATTTGCC (site ACAGTATCTTG) | 0.966
ACAGTAGCATGGACCGGTTTTCCCGGTAATCCGTATTTGTA (site ACAGTAGCTTA) | 2.87
ACAGTAGCATGGACCGGTTTTCCCGGTAATCCGTATTTGTA (site ACAGTATCTTG) | 1.49
ACAGTATCATGGACCGGTTTTCCCGGTAATCCGTATTTGCG (site ACAGTATCTAG) | 2.18
ACAGTATCATGGACCGGTTTTCCCGGTAATCCGTATTTGCG (site ACAGTATCTCG) | 3.51
ACAGTATCATGGACCGGTTTTCCCGGTAATCCGTATTTGCG (site ACAGTATCTGG) | 2.14
ACAGTATCATGGACCGGTTTTCCCGGTAATCCGTATTTGCG (site ACAGTATCTTG) | 2.57
ACAGTATCATGGACCGGTTTTCCCGGTAATCCGTATTTGTG (site ACAGTATCTCA) | 3.03
ACAGTATCATGGACCGGTTTTCCCGGTAATCCGTATTTGTG (site ACAGTATCTTG) | 1.03
ACATAAGCATGGACCGGTTTTCCCGGTAATCCGTATTTGAA (site ACATAAGCTTT) | 2.7
ACATATACATGGACCGGTTTTCCCGGTAATCCGTATTTGTG (site ACATATACTCA) | 1.81
ACATATACATGGACCGGTTTTCCCGGTAATCCGTATTTGTG (site ACATCTACTCA) | 0.0121
ACATATACATGGACCGGTTTTCCCGGTAATCCGTATTTGTG (site ACATGTACTCA) | 0.021
ACATATACATGGACCGGTTTTCCCGGTAATCCGTATTTGTG (site ACATTTACTCA) | 0.0115
ACATCCACATGGACCGGTTTTCCCGGTAATCCGTATTTGTG (site ACATCAACTCA) | 0.0218
ACATCCACATGGACCGGTTTTCCCGGTAATCCGTATTTGTG (site ACATCCACTCA) | 0.309
ACATCCACATGGACCGGTTTTCCCGGTAATCCGTATTTGTG (site ACATCGACTCA) | 0.00941
ACATCCACATGGACCGGTTTTCCCGGTAATCCGTATTTGTG (site ACATCTACTCA) | 0.0155
ACATCTACATGGACCGGTTTTCCCGGTAATCCGTATTTGCG (site ACATCTACTCA) | 0.195
ACATCTACATGGACCGGTTTTCCCGGTAATCCGTATTTGCG (site ACATCTACTCC) | 0.0147
ACATCTACATGGACCGGTTTTCCCGGTAATCCGTATTTGCG (site ACATCTACTCG) | 1.2

Sequence | recombinant UMI read abundance (log10)
ACATCTACATGGACCGGTTTTCCCGGTAATCCGTATTTGCG (site ACATCTACTCT) | 0.353
ACATCTACATGGACCGGTTTTCCCGGTAATCCGTATTTGGG (site ACATCTACTCA) | 0.0151
ACATCTACATGGACCGGTTTTCCCGGTAATCCGTATTTGGG (site ACATCTACTCC) | 0.54
ACATCTACATGGACCGGTTTTCCCGGTAATCCGTATTTGGG (site ACATCTACTCG) | 0.00576
ACATCTACATGGACCGGTTTTCCCGGTAATCCGTATTTGGG (site ACATCTACTCT) | 0.0169
ACATCTACATGGACCGGTTTTCCCGGTAATCCGTATTTGTG (site AAATCTACTCA) | 0.00563
ACATCTACATGGACCGGTTTTCCCGGTAATCCGTATTTGTG (site ACAACTACTCA) | 0.00896
ACATCTACATGGACCGGTTTTCCCGGTAATCCGTATTTGTG (site ACACCTACTCA) | 0.00963
ACATCTACATGGACCGGTTTTCCCGGTAATCCGTATTTGTG (site ACAGCTACTCA) | 0.0992
ACATCTACATGGACCGGTTTTCCCGGTAATCCGTATTTGTG (site ACATATACTCA) | 0.324
ACATCTACATGGACCGGTTTTCCCGGTAATCCGTATTTGTG (site ACATCAACTCA) | 0.0141
ACATCTACATGGACCGGTTTTCCCGGTAATCCGTATTTGTG (site ACATCCACTCA) | 0.0072
ACATCTACATGGACCGGTTTTCCCGGTAATCCGTATTTGTG (site ACATCGACTCA) | 0.0136
ACATCTACATGGACCGGTTTTCCCGGTAATCCGTATTTGTG (site ACATCTACTAA) | 0.044
ACATCTACATGGACCGGTTTTCCCGGTAATCCGTATTTGTG (site ACATCTACTCA) | 0.552
ACATCTACATGGACCGGTTTTCCCGGTAATCCGTATTTGTG (site ACATCTACTCC) | 0.0178
ACATCTACATGGACCGGTTTTCCCGGTAATCCGTATTTGTG (site ACATCTACTCG) | 0.279
ACATCTACATGGACCGGTTTTCCCGGTAATCCGTATTTGTG (site ACATCTACTCT) | 0.188
ACATCTACATGGACCGGTTTTCCCGGTAATCCGTATTTGTG (site ACATCTACTGA) | 0
ACATCTACATGGACCGGTTTTCCCGGTAATCCGTATTTGTG (site ACATCTACTTA) | 0
ACATCTACATGGACCGGTTTTCCCGGTAATCCGTATTTGTG (site ACATCTCCTCA) | 0.0291
ACATCTACATGGACCGGTTTTCCCGGTAATCCGTATTTGTG (site ACATCTGCTCA) | 0.0534
ACATCTACATGGACCGGTTTTCCCGGTAATCCGTATTTGTG (site ACATCTTCTCA) | 0.234
ACATCTACATGGACCGGTTTTCCCGGTAATCCGTATTTGTG (site ACATGTACTCA) | 0.023
